Here are results for five compounds from patent US12391751B2, “Antibody against advanced glycation end products and use thereof” (Bloom Technology Corporation, priority 2018, dated 2025).

The subject of one assay is PB-1 antibody. Nature of the assay: Competitive ELISA of GAL691 and known AGEs against PB-1 (Example 31). It is filed as binding, mouse. Conditions: immobilized A-peak-BSA; competitor 0.04 to 2.5 mM; PB-1 0.1 μg/mL. The protocol: Competitive ELISA was conducted using the reagents described in Example 13. A solution of A-peak-BSA prepared into 1 μg/mL in a coating solution was added at 100 μL/well to a 96-well microtiter plate (Costar) and incubated overnight at 4° C.
(§1) Each well after the immobilization treatment was washed three times with a washing solution (300 μL), and a blocking solution (200 μL) was added thereto and left at room temperature for 1 hour.
GAL691 (prepared in Example 16), GLAP (prepared in Example 12), Lys-hydroxy-triosidine (prepared in Example 17), GA-pyridine (prepared in Example 28), GOLD (prepared in Example 29), and Z-Lys were each dissolved in a phosphate buffer solution (0.2 M, pH 7.4) to prepare a 100 mM solution. Then, a 10 mM solution was prepared by dilution 10-fold with a diluting solution containing BSA (1 mg/mL, FUJIFILM Wako Pure Chemical Corp.). Sample solutions of 4-fold dilution series of 0.04, 0.16, 0.63, and 2.5 mM were further prepared with a diluting solution containing a 10% (v/v) phosphate buffer solution and 1 mg/mL BSA. Ten-fold dilutions of a phosphate buffer solution with a diluting solution containing 1 mg/mL BSA were prepared as blank solutions containing no sample in the same way as above. A 0.1 μg/mL solution of the PB-1 antibody was prepared with a diluting solution containing 1 mg/mL BSA.
Each well treated with the blocking solution was washed three times with a washing solution (300 μL), and the sample solutions of 4-fold dilution series (50 μL each) and the PB-1 antibody dilution solution (50 μL) were added thereto, stirred with a plate mixer for 2 minutes, and then incubated at room temperature for 1 hour.
After the competitive reaction, each well was washed three times with a washing solution (300 μL), and peroxidase-labeled anti-mouse IgG (H+L) polyclonal antibody, F(ab′)2 fragment (Kirkegaard & Perry Laboratories, Inc.) diluted into 0.05 μg/mL with a diluting solution containing 1 mg/mL BSA was added at 100 μL/well and left standing at room temperature for 1 hour.
After washing three times with a washing solution (300 μL), a substrate solution (ELISA POD substrate TMB kit (Popular), Nacalai Tesque, Inc.) was added at 100 μL/well and incubated at room temperature for 10 minutes under light shielding. Then, color development was terminated by the addition of 2 N sulfuric acid (50 μL).
Absorbance was measured at a dominant wavelength of 450 nm and a sub-wavelength of 650 nm with a microplate reader (Cytation 5, BioTek Instrument Inc.), and the absorbance at the sub-wavelength was subtracted from the absorbance at the dominant wavelength. Change in the absorbance of GAL691, GLAP, Lys-hydroxy-triosidine, GA-pyridine, GOLD, and Z-Lys was indicated as relative values to the absorbance of the blank solution.
Background: ELISA stands for enzyme-linked immunosorbent assay.

The test system of assay [1] is POD-labeled novel monoclonal antibody (SJ-5). Put plainly: Competitive ELISA of GAL13, GLAP, Z-Lys-OH against SJ-5 (Example 13). The format is binding, mouse. The conditions noted are these: immobilized Glycer-AGEs-BSA; competitor 0.0063 to 2 mg/mL. As to the method:
A solution of BSA containing AGEs derived from glyceraldehyde (stock solution: 10 mg/mL PBS solution) prepared into 1 μg/mL in a coating solution was added at 100 μL/well to a 96-well microtiter plate (COSTAR) and incubated overnight at 4° C.
as §1
GAL13 (prepared in Example 2), GLAP (prepared in Example 12), and Z-Lys-OH (Tokyo Chemical Industry Co., Ltd.) were each dissolved in a phosphate buffer solution (0.2 M, pH 7.4) to prepare a 20 mg/mL solution. Sample solutions of 2-fold dilution series from 0.0063 to 2 mg/mL (6 points) were further prepared by dilution with a diluting solution. A POD-labeled novel monoclonal antibody (SJ-5) solution was diluted 16,000-fold with a diluting solution containing BSA (1 mg/mL, FUJIFILM Wako Pure Chemical Corp.) to prepare a POD-labeled SJ-5 antibody dilution solution. […]
Absorbance was measured at a dominant wavelength of 450 nm and a sub-wavelength of 650 nm with a microplate reader (Cytation 5, BioTek Instrument Inc.), and the absorbance at the sub-wavelength was subtracted from the absorbance at the dominant wavelength.

A further assay has as its system HUVEC. Put plainly: Neutralization test of vascular endothelial cell lumen formation inhibition using PB-1 (Example 35). The format is cell-based, human. The conditions noted are these: Matrigel matrix; 8-hour culture. The protocol: Matrigel matrix was prepared by the same operation as in Example 14.
10 μL of Glycer-AGEs-BSA (10 mg/mL) prepared in Example 1, 10 μL of phosphate-buffered saline (PBS, FUJIFILM Wako Pure Chemical Corp.), and 90 μL of the PB-1 antibody (10 mg/mL) or a control antibody (10 mg/mL) were added to a 1.5 mL tube (Watson) and left standing at room temperature for 10 minutes. Then, a supernatant was recovered by centrifugation at 14000 rpm for 15 minutes using a centrifuge (Thermo Fisher Scientific Inc.).
(3) A lumen formation inhibition test was conducted by the same operation as in Example 14. As shown in the drawing, HUVEC was confirmed to form a lumen in the Matrigel matrix in the control BSA addition group. […] Furthermore, this inhibition of lumen formation was neutralized by the reaction solution of PB-1.

Another assay relates to α-SMA. Nature of the assay: Endothelial-to-mesenchymal transition inhibition test, real-time PCR (Example 15). Conditions: HUVEC; β-actin internal standard; 8 hours. The format is cell-based, human. The protocol: (§2) 10 μL of Glycer-AGEs-BSA (10 mg/mL) prepared in Example 1, PBS, and 90 μL of SJ-5 (10 mg/mL) or a control antibody (10 mg/mL) were added to a 1.5 mL tube (Watson). Alternatively, 90 μL of a PBS solution of control BSA (10 mg/mL) was added. These solutions were left standing at room temperature for 10 minutes. Then, a supernatant was recovered by centrifugation at 14000 rpm for 15 minutes using a centrifuge (Thermo Fisher Scientific Inc.).
(§3) HUVEC was cultured in a 10 cm dish using 10 mL of a medium for HUVEC.
(§4) The cultured HUVEC was washed with 10 mL of PBS. Then, 1 mL of trypsin-EDTA was added thereto and left standing at room temperature for 3 minutes. HUVEC thus left standing was confirmed to be detached from the dish, and trypsin-EDTA was neutralized by the addition of 10 mL of a medium for HUVEC. After the neutralization, the whole amount was transferred to a 50 mL tube and centrifuged at 1500 rpm for 3 minutes using a centrifuge.
(§5) After the centrifugation, the supernatant was discarded, and precipitated cells were resuspended by the addition of 1 mL of a medium for HUVEC. A 10 μL aliquot from the resuspension was mixed with 10 μL of Trypan Blue, and 10 μL thereof was added to a counting chamber. Then, the number of live cells was counted in Auto Cell Counter EVE. The cell suspension was diluted into 2.5×10^5 cells/mL with a medium for HUVEC and inoculated at 400 μL/well to the Matrigel prepared in (1). After the inoculation, each reaction solution prepared in (2) was added at 100 μL/well, followed by culture for 8 hours in a CO2 incubator.
(§6) Each well was washed three times with 1 mL of PBS, and Cell Recovery Solution (Corning Inc.) was added at 500 μL/well.
(§7) The cells and the Matrigel matrix were scraped off using Blue Chip (Watson), recovered into a 1.5 mL tube, and transferred to the 1.5 mL tube after rinsing of each well again with 500 μL of Cell Recovery Solution. The 1.5 mL tube was mixed by inversion five times and then left standing on ice for 1 hour to confirm that the Matrigel matrix was completely degraded. After the Matrigel matrix degradation, a supernatant was discarded by centrifugation at 800 rpm at 4° C. Precipitated cells were gently suspended in 1 mL of ice-cooled PBS and centrifuged at 800 rpm at 4° C. to discard a supernatant. Precipitated cells were gently suspended again in 1 mL of ice-cooled PBS and centrifuged at 800 rpm at 4° C.
(§8) 125 μL of CellAmp Washing Buffer attached to the kit was added to the cells precipitated by centrifugation, and mixed. […]
(§9) After the addition, real-time PCR was performed with QuantStudio™ 12K Flex real-time PCR system (Thermo Fisher Scientific Inc.) to quantify gene expression levels. […]

In a further assay the test system is CD31. The description is as above. It is filed as cell-based, human. Conditions: HUVEC; β-actin internal standard; 8 hours. As to the method:
as §2, §3, §4, §5, §6, §7, §8, §9

For assay [2], the system named is HUVEC (human umbilical vein endothelial cells). Nature of the assay: Neutralization test of vascular endothelial cell lumen formation inhibition (Example 14). It is filed as cell-based. Conditions: Matrigel matrix; 8 hours culture. The protocol:
Matrigel matrix (Corning Inc.) was placed in a refrigerator and thawed overnight. The thawed Matrigel matrix was added at 300 μL/well to a 12-well plate (Corning Inc.) and hardened by still standing at 37° C. for 1 hour in a CO2 incubator (ESPEC Corp.).
10 μL of Glycer-AGEs-BSA (10 mg/mL) prepared in Example 1 or 10 μL of control BSA (10 mg/mL), phosphate-buffered saline (PBS, FUJIFILM Wako Pure Chemical Corp.), and 90 μL of SJ-5 (10 mg/mL) or a control antibody (10 mg/mL) were added to a 1.5 mL tube (Watson) and left standing at room temperature for 10 minutes. Then, a supernatant was recovered by centrifugation at 14000 rpm for 15 minutes using a centrifuge (Thermo Fisher Scientific Inc.).
HUVEC (human umbilical vein endothelial cells, National Institutes of Biomedical Innovation, Health and Nutrition, JCRB cell bank) was cultured in a 10 cm dish (Corning Inc.) using 10 mL of a medium for HUVEC (KAC Co., Ltd.).
The cultured HUVEC was washed with 10 mL of PBS. Then, 1 mL of trypsin-EDTA (FUJIFILM Wako Pure Chemical Corp.) was added thereto and left standing at room temperature for 3 minutes. […]
After the centrifugation, the supernatant was discarded, and precipitated cells were resuspended by the addition of 1 mL of a medium for HUVEC. […] Then, the number of live cells was counted in Auto Cell Counter EVE (NanoEnTek Inc.). […]

On to `CC(=O)N[C@@H](CCCC[n+]1cc(O)cc(CO)c1)C(=O)O` [GLAP], for which the “change in absorbance relative to blank (competition for PB-1 binding)” value (from here on “change in absorbance relative to blank”) in the assay with PB-1 antibody is “no reduction in absorbance was observed”. The “change in absorbance (competition for SJ-5 binding)” value in assay [1] was “reduction in absorbance was observed for neither”.
As to `NCCCC[C@H](NC(=O)OCc1ccccc1)C(=O)O` [Z-Lys-OH, N^α-Carbobenzoxy-L-lysine], the “change in absorbance relative to blank” value in the assay on PB-1 antibody was “no reduction in absorbance was observed”. Moreover, in assay [1], the “change in absorbance (competition for SJ-5 binding)” value was “reduction in absorbance was observed for neither”.
Turning to `CC(=O)NC(CCCCn1cc[n+](CCCCC(NC(C)=O)C(=O)O)c1)C(=O)O` (stereo not shown) [GOLD], in the assay on PB-1 antibody, the “change in absorbance relative to blank” value is recorded as “no reduction in absorbance was observed”.
As to `CC(=O)NC(CCCC[n+]1ccc(CO)c(O)c1)C(=O)O` (stereo not shown) [GA-pyridine], the “change in absorbance relative to blank” value in the assay with PB-1 antibody is “no reduction in absorbance was observed”.
In the case of “Glycer-AGEs-BSA: bovine serum albumin containing AGEs derived from glyceraldehyde [reference compound]”, the “effect on lumen formation of HUVEC” value (with HUVEC; in assay [2]) was “inhibited lumen formation” in each case. Besides, the “expression level of α-SMA” value in the assay with α-SMA is “increased”. Further, in the assay on CD31, the “expression level of CD31” value was “decreased”.
